# Results from patent US12685312B2, “Sulfonamide apyrase inhibitors” (Texas Crop Science, Inc., priority 2022, dated 2026).
# Test system: apyrase
# Assay: Screen for apyrase inhibitors (Method 1, in vitro phosphate-release absorbance assay)
# Format: biochemical
# Conditions: inhibitor conc at 1 mM stock, 1 hr room temperature, absorbance 630 nm; rounded average of two assay results
# Method: Apyrase inhibitors useful as enhancers of pesticidal activity are assessed using an in vitro assay. The method of Windsor, Bio Techniques 33:1024-1030 (November 2002) was used as follows Screen for Apyrase Inhibitors- 96 well plates were used for the assay: (Greiner bio-one: REF-655901-96 well, PS, F-bottom, Clear, Non-binding) Buffers: • Reaction Buffer: 60 mM Hepes; 3 mM MgCl2, 3 mM CaCl2 and 3 mM ATP (pH 6.5) • Development Buffer A: 2% aqueous ammonium molybdate • Development Buffer B: 11% ascorbic acid in 37.5% TCA in water • Stop buffer C: 2% trisodium citrate in 2% acetic acid solution in water • Add 100 μl of reaction buffer to each well. • Add 10 μl of DMSO (control) or inhibitor/compound or compounds such as […] or orthovanadate to each well. […] A blank cell indicates either <10% observed inhibition or a large difference between repetitions. In certain examples, the lack of observed inhibition is due to a lack of solubility of the compound under assay conditions, rather than a lack of apyrase inhibitory activity.
row,Structure (SMILES),% Inhibition of Apyrase
1,"O=C1CCc2cc(S(=O)(=O)Nc3cccc(C(=O)Nc4cccc(C(F)(F)F)c4)c3)ccc2N1 [I-218, 3-((2-oxo-1,2,3,4-tetrahydroquinoline)-6-sulfonamido)-N-(3-(trifluoromethyl)phenyl)benzamide]",62%
2,"O=C(Nc1ccc(F)c(F)c1)c1cccc(S(=O)(=O)Nc2ccc3c(c2)OCO3)c1 [I-220, 3-(N-(benzo[d][1,3]dioxol-5-yl)sulfamoyl)-N-(3,4-difluorophenyl)benzamide]",68%
3,"O=C(Nc1cccc(F)c1)c1ccc(S(=O)(=O)Nc2ccc(Cl)cc2)cc1 [I-223, 4-(N-(4-chlorophenyl)sulfamoyl)-N-(3-fluorophenyl)benzamide]",74%
4,"O=C(Nc1ccc(OC(F)F)cc1)c1ccccc1S(=O)(=O)Nc1cccc(C(F)(F)F)c1 [I-224, N-(4-(difluoromethoxy)phenyl)-2-(N-(3-(trifluoromethyl)phenyl)sulfamoyl)benzamide]",67%
5,"Cc1ccc(NC(=O)c2ccc(S(=O)(=O)Nc3cccc(C(F)(F)F)c3)cc2)c(C)c1 [I-225, N-(2,4-dimethylphenyl)-4-(N-(3-(trifluoromethyl)phenyl)sulfamoyl)benzamide]",72%
6,"Cc1ccc(S(=O)(=O)Nc2cccc(NC(=O)c3ccc4c(c3)OCCO4)c2)cc1C [I-227, N-(3-((3,4-dimethylphenyl)sulfonamido)phenyl)-2,3-dihydrobenzo[b][1,4]dioxine-6-carboxamide]",71%
7,"COc1ccc(NC(=O)c2ccccc2NS(=O)(=O)c2cccc(C(F)(F)F)c2)cc1OC [I-228, N-(3,4-dimethoxyphenyl)-2-((3-(trifluoromethyl)phenyl)sulfonamido)benzamide]",55%
8,"Cc1ccc(NC(=O)c2cccc(S(=O)(=O)Nc3ccc4c(c3)OCO4)c2)cc1C [I-230, 3-(N-(benzo[d][1,3]dioxol-5-yl)sulfamoyl)-N-(3,4-dimethylphenyl)benzamide]",66%
9,"Cc1ccc(NC(=O)c2ccccc2NS(=O)(=O)c2cccc(C(F)(F)F)c2)cc1 [I-231, N-(p-tolyl)-2-((3-(trifluoromethyl)phenyl)sulfonamido)benzamide]",58%
10,"O=C(Nc1cccc(S(=O)(=O)Nc2ccc(Br)cc2)c1)c1ccc2c(c1)OCO2 [I-232, N-(3-(N-(4-bromophenyl)sulfamoyl)phenyl)benzo[d][1,3] dioxole-5-carboxamide]",65%
11,"CN(c1ccccc1)S(=O)(=O)c1ccccc1C(=O)Nc1ccc(C#N)cc1 [I-235, N-(4-cyanophenyl)-2-(N-methyl-N-phenylsulfamoyl)benzamide]",51%
12,"C#Cc1cccc(NC(=O)c2cccc(S(=O)(=O)Nc3ccc(Cl)cc3)c2)c1 [I-237, 3-(N-(4-chlorophenyl)sulfamoyl)-N-(3-ethynylphenyl)benzamide]",76%
13,"Cc1ccccc1NC(=O)c1cccc(S(=O)(=O)Nc2ccc3c(c2)OCO3)c1 [I-238, 3-(N-(benzo[d][1,3]dioxol-5-yl)sulfamoyl)-N-(o-tolyl)benzamide]",74%
14,"O=C(NC12CC3CC(CC(C3)C1)C2)c1cccc(S(=O)(=O)Nc2ccc(Br)cc2)c1 [I-240, N-(adamantan-1-yl)-3-(N-(4-bromophenyl)sulfamoyl)benzamide]",71%
15,"O=C(Nc1ccc(Cl)c([N+](=O)[O-])c1)c1cccc(S(=O)(=O)Nc2cc(C(F)(F)F)ccc2Cl)c1 [I-241, N-(4-chloro-3-nitrophenyl)-3-(N-(2-chloro-5-(trifluoromethyl)phenyl)sulfamoyl)benzamide]",71%
16,"CC1Cc2ccccc2N1S(=O)(=O)c1cccc(C(=O)Nc2ccc(F)c([N+](=O)[O-])c2)c1 (centres unmarked) [I-242, N-(4-fluoro-3-nitrophenyl)-3-((2-methylindolin-1-yl)sulfonyl)benzamide]",69%
17,"O=C(Nc1ccc(OC(F)F)cc1)c1cccc(S(=O)(=O)Nc2ccc3c(c2)OCO3)c1 [I-243, 3-(N-(benzo[d][1,3]dioxol-5-yl)sulfamoyl)-N-(4-(difluoromethoxy)phenyl)benzamide]",69%
18,"O=C(NC1CCCc2ccccc21)c1cccc(S(=O)(=O)Nc2ccc(Br)cc2)c1 (centres unmarked) [I-244, 3-(N-(4-bromophenyl)sulfamoyl)-N-(1,2,3,4-tetrahydronaphthalen-1-yl)benzamide]",68%
19,"Cc1ccc(NC(=O)c2cccc(S(=O)(=O)Nc3ccc4c(c3)OCO4)c2)cc1 [I-245, 3-(N-(benzo[d][1,3]dioxol-5-yl)sulfamoyl)-N-(p-tolyl)benzamide]",67%

row,Structure (SMILES),% Inhibition of Apyrase
1,"COc1ccc(NC(=O)c2cccc(S(=O)(=O)Nc3ccc(Cl)cc3)c2)cc1 [I-246, 3-(N-(4-chlorophenyl)sulfamoyl)-N-(4-methoxyphenyl)benzamide]",66%
2,"O=C(c1cccc(S(=O)(=O)Nc2ccc(Br)cc2)c1)N1CCN(c2cccc(Cl)c2)CC1 [I-247, N-(4-bromophenyl)-3-(4-(3-chlorophenyl)piperazine-1-carbonyl)benzenesulfonamide]",65%
3,"CSc1cccc(NC(=O)c2cccc(S(=O)(=O)Nc3ccc4c(c3)OCO4)c2)c1 [I-248, 3-(N-(benzo[d][1,3]dioxol-5-yl)sulfamoyl)-N-(3-(methylthio)phenyl)benzamide]",64%
4,"O=C(Nc1ccccc1F)c1cccc(S(=O)(=O)Nc2ccc3c(c2)OCO3)c1 [I-249, 3-(N-(benzo[d][1,3]dioxol-5-yl)sulfamoyl)-N-(2-fluorophenyl)benzamide]",63%
5,"O=C(Nc1ccc(Br)cc1)c1cccc(S(=O)(=O)Nc2cccc(C(F)(F)F)c2)c1 [I-250, N-(4-bromophenyl)-3-(N-(3-(trifluoromethyl)phenyl)sulfamoyl)benzamide]",63%
6,"COc1ccc([N+](=O)[O-])cc1NC(=O)c1cccc(S(=O)(=O)Nc2cc(C(F)(F)F)ccc2Cl)c1 [I-251, 3-(N-(2-chloro-5-(trifluoromethyl)phenyl)sulfamoyl)-N-(2-methoxy-5-nitrophenyl)benzamide]",62%
7,"Cc1ccc(F)c(NC(=O)c2cccc(S(=O)(=O)Nc3ccc4c(c3)OCO4)c2)c1 [I-252, 3-(N-(benzo[d][1,3]dioxol-5-yl)sulfamoyl)-N-(2-fluoro-5-methylphenyl)benzamide]",62%
8,"COc1cccc(NC(=O)c2cccc(S(=O)(=O)Nc3ccc4c(c3)OCO4)c2)c1 [I-253, 3-(N-(benzo[d][1,3]dioxol-5-yl)sulfamoyl)-N-(3-methoxyphenyl)benzamide]",61%
9,"COc1ccc([N+](=O)[O-])cc1NC(=O)c1cccc(S(=O)(=O)Nc2ccc(Cl)cc2)c1 [I-254, 3-(N-(4-chlorophenyl)sulfamoyl)-N-(2-methoxy-5-nitrophenyl)benzamide]",61%
10,"O=C(Nc1ccc(N2CCOCC2)cc1)c1cccc(S(=O)(=O)Nc2ccc(Br)cc2)c1 [I-255, 3-(N-(4-bromophenyl)sulfamoyl)-N-(4-morpholinophenyl)benzamide]",61%
11,"Cc1nc2cc(NC(=O)c3cccc(S(=O)(=O)Nc4ccc(Br)cc4)c3)ccc2o1 [I-256, 3-(N-(4-bromophenyl)sulfamoyl)-N-(2-methylbenzo[d]oxazol-5-yl)benzamide]",61%
12,"COc1cc(NC(=O)c2cccc(S(=O)(=O)Nc3ccc4c(c3)OCO4)c2)cc(OC)c1 [I-257, 3-(N-(benzo[d][1,3]dioxol-5-yl)sulfamoyl)-N-(3,5-dimethoxyphenyl)benzamide]",61%
13,"O=C(Nc1ccc2c(c1)OCCCO2)c1cccc(S(=O)(=O)Nc2ccc3c(c2)OCO3)c1 [I-258, 3-(N-(benzo[d][1,3]dioxol-5-yl)sulfamoyl)-N-(3,4-dihydro-2H-benzo[b][1,4]dioxepin-7-yl)benzamide]",61%
14,"O=C(Nc1ccc(OCC(F)(F)F)cc1)c1cccc(S(=O)(=O)Nc2ccc3c(c2)OCO3)c1 [I-259, 3-(N-(benzo[d][1,3]dioxol-5-yl)sulfamoyl)-N-(4-(2,2,2-trifluoroethoxy)phenyl)benzamide]",60%
15,"O=C(NCC1(c2ccc(Br)cc2)CCOCC1)c1cccc(S(=O)(=O)Nc2ccc(Br)cc2)c1 [I-260, 3-(N-(4-bromophenyl)sulfamoyl)-N-((4-(4-bromophenyl)tetrahydro-2H-pyran-4-yl)methyl)benzamide]",60%
16,"Cc1nc2ccc(NC(=O)c3cccc(S(=O)(=O)Nc4ccc5c(c4)OCO5)c3)cc2s1 [I-261, 3-(N-(benzo[d][1,3]dioxol-5-yl)sulfamoyl)-N-(2-methylbenzo[d]thiazol-6-yl)benzamide]",60%
17,"O=C(c1cccc(S(=O)(=O)Nc2ccc(Br)cc2)c1)N1CCc2sccc2C1 [I-262, N-(4-bromophenyl)-3-(4,5,6,7-tetrahydrothieno[3,2-c]pyridine-5-carbonyl)benzenesulfonamide]",59%
18,"COc1ccc([N+](=O)[O-])cc1NC(=O)c1cccc(S(=O)(=O)N2CCc3ccccc32)c1 [I-263, 3-(indolin-1-ylsulfonyl)-N-(2-methoxy-5-nitrophenyl)benzamide]",59%
19,"O=C(Nc1ccccc1)c1cccc(S(=O)(=O)Nc2ccc3c(c2)OCO3)c1 [I-264, 3-(N-(benzo[d][1,3]dioxol-5-yl)sulfamoyl)-N-phenylbenzamide]",59%
